# Columns and labels:
# Format in all cases: cell-based
# [1] = system: Punta Toro A hemorrhagic fever virus type Adames; assay: Punta Toro A virus cytoprotection, neutral red dye uptake; details: Punta Toro A virus in LLC-MK2 cells
# Procedure: (§1) The second cytoprotection assay protocol, employed to validate the CPE results, was as follows: in the neutral red dye uptake version of the antiviral test protocol described immediately above, the same 96-well microplates were utilized after the CPE had been read. Neutral red dye was then added to the medium: cells not damaged by virus take up a greater amount of dye, which can be read on a computerized micro plate autoreader (the method is described in detail by McManus: Appl. Environ. Microbiol. 1976, 31, 35-38).
# (§2) Punta Toro A hemorrhagic fever virus type Adames was obtained from the Center for Disease Control (CDC). The test cell line consisted of adult Rhesus monkey kidney cells (LLC-MK2).
# The two protocols used to determine the cytoprotection properties of the humate materials were as described in Example 20.
# [2] = system: Pichinde hemorrhagic fever virus 4763; assay: microbe, parasite or virus in culture; details: BSC-1, read-out: CPE EC50
# [3] = system: Punta Toro A hemorrhagic fever virus type Adames; assay: Punta Toro A virus time-of-addition cytoprotection, CPE method
# [4] = system: Punta Toro A hemorrhagic fever virus type Adames; assay: Punta Toro A virus cytoprotection, inhibition of CPE; details: LLC-MK2, read-out: CPE EC50
# [5] = system: Punta Toro A hemorrhagic fever virus type Adames; assay: Punta Toro A virus time-of-addition cytoprotection, NR method
# Procedure: as §1, §2
# The two protocols used to determine the cytoprotection properties of the humate materials were as described in Example 20, except that drugs were added at specific times to the test wells containing virus.
# [6] = system: Pichinde hemorrhagic fever virus 4763
smiles,measurement,setting,value
NC(=O)c1ncn([C@@H]2O[C@H](CO)[C@@H](O)[C@H]2O)n1 [Ribavirin],NR EC99,[1],5 micrograms per milliliter
same,EC50,[2],0.3 mg/L
same,EC50,"[3]; 0 h, read-out: EC50, CPE method, time of addition 0 hours",4 mg/L
same,EC50,"[3]; 1 h, read-out: EC50, CPE method, time of addition 1 hours",4 mg/L
same,EC50,"[3]; 1 h, read-out: EC50, CPE method, time of addition −1 hours",10 mg/L
same,EC50,"[3]; 2 h, read-out: EC50, CPE method, time of addition 2 hours",8 mg/L
same,EC50,"[3]; 4 h, read-out: EC50, CPE method, time of addition 4 hours",4 mg/L
same,EC50,"[3]; 6 h, read-out: EC50, CPE method, time of addition 6 hours",10 mg/L
same,EC50,"[3]; 8 h, read-out: EC50, CPE method, time of addition 8 hours",8 mg/L
same,EC50,"[3]; 12 h, read-out: EC50, CPE method, time of addition 12 hours",8 mg/L
same,EC50,"[3]; 24 h, read-out: EC50, CPE method, time of addition 24 hours",2 mg/L
same,EC50,[4],5 mg/L
same,EC50,"[5]; 0 h, read-out: EC50, NR method, time of addition 0 hours",3 mg/L
same,EC50,"[5]; 1 h, read-out: EC50, NR method, time of addition 1 hours",5 mg/L
same,EC50,"[5]; 1 h, read-out: EC50, NR method, time of addition −1 hours",6 mg/L
same,EC50,"[5]; 2 h, read-out: EC50, NR method, time of addition 2 hours",5 mg/L
same,EC50,"[5]; 4 h, read-out: EC50, NR method, time of addition 4 hours",9 mg/L
same,EC50,"[5]; 6 h, read-out: EC50, NR method, time of addition 6 hours",8 mg/L
same,EC50,"[5]; 8 h, read-out: EC50, NR method, time of addition 8 hours",10 mg/L
same,EC50,"[5]; 12 h, read-out: EC50, NR method, time of addition 12 hours",12 mg/L
same,EC50,"[5]; 24 h, read-out: EC50, NR method, time of addition 24 hours",35 mg/L
same,NR EC99,[6],<1 micrograms per milliliter
